Patent US20060189624A1, “Novel combination for treating sexual dysfunction” (Bayer Aktiengesellschaft, priority 1999, published 2006)

System: adult male rabbits of the animal strain HsdHHL Watanables
Assay: Erection (length of the protruding penis) in hypercholesterolemic rabbits after cGMP PDE inhibitor, with or without antilipemic pretreatment
Assay type: in vivo, rabbit
Conditions: cerivastatin sodium 1 mg/kg s.c. for 7 days
Method: In a placebo-controlled study, twelve adult male rabbits of the animal strain HsdHHL Watanables having a body weight of 3-5 kg, which, owing to breeding, suffer from hypercholesterolemia and arteriosclerosis, were treated with a selective cGMP PDE inhibitor (3 mg/kg, intravenously).
The animals had free access to water and, for 2 hours per day, to feed. The animals were kept in a 10/14 hour day/night rhythm (light on from 8 am onwards), and the ambient temperature was 22 to 24° C.
The selective cGMP PDE inhibitor used was 2-[2-ethoxy-5-(4-ethyl-piperazine-1-sulfonyl)-phenyl]-5-methyl-7-propyl-3H-imidazo[5,1-f][1,2,4]triazin-4-one hydrochloride trihydrate (Ex. 336 of WO-A-99/24433).
For intravenous injection, the PDE inhibitor was dissolved in physiological saline (0.9% by volume).
For seven days prior to the treatment with the PDE inhibitor, i.e. for 7 successive days, an antilipemic, i.e. cerivastatin sodium (i.e. the monosodium salt of cerivastatin) was administered subcutaneously to six of the twelve rabbits (1 mg/kg of body weight, cerivastatin sodium dissolved in physiological saline). […]
The erection was evaluated by measuring the length of the protruding penis using a vernier caliper. […] To this end, the animals were in each case removed from the cage, held by neck hair and hind legs, turned onto their back and measured. […]

In the case of COCc1c(C(C)C)nc(C(C)C)c(/C=C/[C@@H](O)C[C@@H](O)CC(=O)O)c1-c1ccc(F)cc1 [cerivastatin sodium], the “erection 1 day after the cerivastatin sodium pretreatment had ended compared with 3 days after (FIG. 2, upper vs middle curve)” value (then PDE inhibitor 3 mg/kg i.v., 1 day vs 3 days after end of pretreatment) is reported as “still more pronounced” and the “erection after administration of the PDE inhibitor, compared with rabbits not pretreated with the antilipemic (FIG. 2)” value (then PDE inhibitor (Ex. 336 of WO-A-99/24433) 3 mg/kg i.v. 1 day and 3 days after pretreatment ended, measured 5-120 min, control saline pretreatment) is reported as “considerably more pronounced erection”.
